Results from PMC6222718, “Ethylenediamine Derived Carboxamides of Betulinic and Ursolic Acid as Potential Cytotoxic Agents” (Molecules : A Journal of Synthetic Chemistry and Natural …, 2018).
Structures can show the parent of a compound that is named as a salt. One block for each molecule: values may come before it.

Experiments:
[1] = tested on: HT29 (colon adenocarcinoma); assay: SRB cytotoxicity assay, HT29; format: cell-based, human; settings: for EC50: Homo sapiens, HT-29, SRB assay, 96 h of treatment, HT29; for Selectivity index (SI) HT29: SI = EC50 (NIH 3T3)/EC50 (HT29)
Experimental: (§1) The cytotoxicity of ursolic and betulinic carboxamides 3–30 was determined in sulforhodamine B (SRB) assays.
(§2) The cell lines used were human cancer cell lines: 518A2 (melanoma), A2780 (ovarian carcinoma), HT29 (colon adenocarcinoma), MCF-7 (breast adenocarcinoma), 8505C (thyroid carcinoma) and non-malignant mouse fibroblasts NIH 3T3. Cultures were maintained as monolayers in RPMI 1640 medium with L-glutamine (Capricorn Scientific GmbH, Ebsdorfergrund, Germany) supplemented with 10% heat inactivated fetal bovineserum (Sigma-Aldrich Chemie GmbH, Steinheim, Germany) and penicillin/streptomycin (Capricorn Scientific GmbH, Ebsdorfergrund, Germany) at 37 °C in a humidified atmosphere with 5% CO2.
(§3) The cytotoxicity of the compounds was evaluated using the sulforhodamine-B (Kiton-Red S, ABCR) micro culture colorimetric assay. Cells were seeded into 96-well plates on day 0 at appropriate cell densities to prevent confluence of the cells during the period of experiment. After 24 h, the cells were treated with 6 different concentrations (1, 3, 7, 12, 20 and 30 µM) minimum. The final concentration of DMSO/DMF never exceeded 0.5%, which was non-toxic to the cells. After a 96 h treatment, the supernatant medium from the 96-well plates was discarded, the cells were fixed with 10% trichloroacetic acid (TCA) and allowed to rest at 4 °C. After 24 h fixation, the cells were washed in a strip washer and dyed with SRB solution (100 µL, 0.4% in 1% acetic acid) for about 20 min. After dying, the plates were washed four times with 1% acetic acid to remove the excess of the dye and allowed to air-dry overnight. Tris base solution (200 µL, 10 mM) was added to each well and absorbance was measured at λ = 570 nm using a 96-well plate reader (Tecan Spectra, Crailsheim, Germany). The EC50 values were averaged from three independent experiments performed each in triplicate calculated from semi logarithmic dose response curves applying a non-linear 4P Hills-slope equation (GraphPad Prism5; variables top and bottom were set to 100 and 0, respectively).

518A2 (melanoma) = assay: SRB cytotoxicity assay, 518A2; format: cell-based, human; settings: for EC50: Homo sapiens, SRB assay, 96 h of treatment, 518A2; for Selectivity index (SI) 518A2: SI = EC50 (NIH 3T3)/EC50 (518A2)
Experimental: as §1, §2, §3

[2] = tested on: 8505C (thyroid carcinoma); assay: SRB cytotoxicity assay, 8505C; format: cell-based, human; settings: for EC50: Homo sapiens, SRB assay, 96 h of treatment, 8505C; for Selectivity index (SI) 8505C: SI = EC50 (NIH 3T3)/EC50 (8505C)
Experimental: as §1, §2, §3

[3] = tested on: A2780 (ovarian carcinoma); assay: SRB cytotoxicity assay, A2780; format: cell-based, human; settings: for EC50: Homo sapiens, SRB assay, 96 h of treatment, A2780; for Selectivity index (SI) A2780: SI = EC50 (NIH 3T3)/EC50 (A2780)
Experimental: as §1, §2, §3

[4] = tested on: non-malignant mouse fibroblasts NIH 3T3; assay: SRB cytotoxicity assay, NIH 3T3; format: cell-based; settings: NIH3T3, 96 h of treatment
Experimental: as §1, §2, §3

[5] = tested on: MCF-7 (breast adenocarcinoma); assay: SRB cytotoxicity assay, MCF-7; format: cell-based, human; settings: for EC50: Homo sapiens, MCF7, SRB assay, 96 h of treatment, MCF-7; for Selectivity index (SI) MCF-7: SI = EC50 (NIH 3T3)/EC50 (MCF-7)
Experimental: as §1, §2, §3

melting point: 117 to 120 °C
Structure (SMILES): CC(=O)O[C@H]1CC[C@@]2(C)C(CC[C@]3(C)C2CC=C2C4[C@@H](C)[C@H](C)CC[C@]4(C(=O)NCCCCN)CC[C@]23C)C1(C)C (stereo partly drawn) [Compound 8, (3β)-N-(4-Aminobutyl)-3-acetyloxy-urs-12-en-28-amide]
EC50 [1]: 1700 ± 100 nM
Selectivity index (SI) HT29 [1]: 0.76
EC50 (518A2 (melanoma)): 2700 ± 100 nM
Selectivity index (SI) 518A2 (518A2 (melanoma)): 0.48
EC50 [2]: 3200 ± 10 nM
Selectivity index (SI) 8505C [2]: 0.41
EC50 [3]: 2600 ± 100 nM
Selectivity index (SI) A2780 [3]: 0.50
EC50 [4]: 1300 ± 200 nM
EC50 [5]: 1700 ± 100 nM
Selectivity index (SI) MCF-7 [5]: 0.76

melting point: 91 to 94 °C
Structure (SMILES): CC(=O)O[C@H]1CC[C@@]2(C)C(CC[C@]3(C)C2CC=C2C4[C@@H](C)[C@H](C)CC[C@]4(C(=O)NCCOCCN)CC[C@]23C)C1(C)C (stereo partly drawn) [Compound 9, (3β)-N-[2-(2-Aminoethoxy)ethyl]-3-acetyloxy-urs-12-en-28-amide]
EC50 [1]: 1600 ± 100 nM
Selectivity index (SI) HT29 [1]: 1.93
EC50 (518A2 (melanoma)): 3500 ± 600 nM
Selectivity index (SI) 518A2 (518A2 (melanoma)): 0.89
EC50 [2]: 5800 ± 400 nM
Selectivity index (SI) 8505C [2]: 0.53
EC50 [3]: 3400 ± 500 nM
Selectivity index (SI) A2780 [3]: 0.91
EC50 [4]: 3100 ± 400 nM
EC50 [5]: 2300 ± 400 nM
Selectivity index (SI) MCF-7 [5]: 1.35

Structure (SMILES): C=C(C)C1CC[C@]2(C(=O)NCCN)CC[C@]3(C)C(CCC4[C@@]5(C)CC[C@H](OC(C)=O)C(C)(C)C5CC[C@]43C)C12 (stereo partly drawn) [Compound 17, (3β)-N-(2-Aminoethyl)-3-acetyloxy-lup-20(29)-en-28-amide]
EC50 [1]: 1000 ± 300 nM
Selectivity index (SI) HT29 [1]: 1.40
EC50 (518A2 (melanoma)): 1600 ± 100 nM
Selectivity index (SI) 518A2 (518A2 (melanoma)): 0.88
EC50 [2]: 2500 ± 30 nM
Selectivity index (SI) 8505C [2]: 0.56
EC50 [3]: 1400 ± 200 nM
Selectivity index (SI) A2780 [3]: 1.00
EC50 [4]: 1400 ± 100 nM
EC50 [5]: 1300 ± 60 nM
Selectivity index (SI) MCF-7 [5]: 1.08

Structure (SMILES): C=C(C)C1CC[C@]2(C(=O)NCCN)CC[C@]3(C)C(CCC4[C@@]5(C)CC[C@H](O)C(C)(C)C5CC[C@]43C)C12 (stereo partly drawn) [Compound 24, (3β)-N-(2-Aminoethyl)-3-hydroxy-lup-20(29)-en-28-amide]
EC50 [1]: 400 ± 20 nM
Selectivity index (SI) HT29 [1]: 1.00
EC50 (518A2 (melanoma)): 400 ± 10 nM
Selectivity index (SI) 518A2 (518A2 (melanoma)): 1.00
EC50 [2]: 400 ± 70 nM
Selectivity index (SI) 8505C [2]: 1.00
EC50 [3]: 400 ± 30 nM
Selectivity index (SI) A2780 [3]: 1.00
EC50 [4]: 400 ± 20 nM
EC50 [5]: 400 ± 20 nM
Selectivity index (SI) MCF-7 [5]: 1.00

Structure (SMILES): C=C(C)C1CC[C@]2(C(=O)NCCN3CCCCC3)CC[C@]3(C)C(CCC4[C@@]5(C)CC[C@H](O)C(C)(C)C5CC[C@]43C)C12 (stereo partly drawn) [Compound 27, (3β)-N-(2-Piperidin-1-ylethyl)-3-hydroxy-lup-20(29)-en-28-amide]
EC50 [1]: 400 ± 30 nM
Selectivity index (SI) HT29 [1]: 1.00
EC50 (518A2 (melanoma)): 500 ± 100 nM
Selectivity index (SI) 518A2 (518A2 (melanoma)): 0.80
EC50 [2]: 800 ± 90 nM
Selectivity index (SI) 8505C [2]: 0.50
EC50 [3]: 400 ± 100 nM
Selectivity index (SI) A2780 [3]: 1.00
EC50 [4]: 400 ± 10 nM
EC50 [5]: 400 ± 10 nM
Selectivity index (SI) MCF-7 [5]: 1.00

Structure (SMILES): COc1cccc2c1C(=O)c1c(O)c3c(c(O)c1C2=O)C[C@@](O)(C(=O)CO)C[C@@H]3O[C@H]1C[C@H](N)[C@H](O)[C@H](C)O1 [DRC, doxorubicin hydrochloride, reference compound]
EC50 [1]: 900 ± 200 nM
Selectivity index (SI) HT29 [1]: 0.07
EC50 (518A2 (melanoma)): 200 ± 50 nM
Selectivity index (SI) 518A2 (518A2 (melanoma)): 0.30
EC50 [2]: 1100 ± 400 nM
Selectivity index (SI) 8505C [2]: 0.05
EC50 [3]: 10 ± 10 nM
Selectivity index (SI) A2780 [3]: 6.00
EC50 [4]: 60 ± 30 nM
EC50 [5]: 1100 ± 300 nM
Selectivity index (SI) MCF-7 [5]: 0.05

Structure (SMILES): C[C@H]1[C@H](C)CC[C@]2(C(=O)O)CC[C@]3(C)C(=CC[C@@H]4[C@@]5(C)CC[C@H](O)C(C)(C)[C@@H]5CC[C@]43C)[C@H]12 [UA, ursolic acid]
EC50 [1]: 10600 ± 700 nM
Selectivity index (SI) HT29 [1]: 1.76
EC50 (518A2 (melanoma)): 14700 ± 100 nM
Selectivity index (SI) 518A2 (518A2 (melanoma)): 1.27
EC50 [2]: 13500 ± 1500 nM
Selectivity index (SI) 8505C [2]: 1.39
EC50 [3]: 11700 ± 600 nM
Selectivity index (SI) A2780 [3]: 1.59
EC50 [4]: 18700 ± 1600 nM
EC50 [5]: 12700 ± 100 nM
Selectivity index (SI) MCF-7 [5]: 1.47
